Some results are limits rather than exact numbers.

By melting point is commonly meant the temperature, or range, at which the solid turns liquid.

In turn, `N#Cc1ccc2c(c1)OC(c1ccccc1)(c1ccccc1)O2` came in with a melting point of 106 to 107 °C.

Take `O=C1OCc2c1cc1ccc3c(c1c2-c1ccc2ccccc2c1)OCO3`: the melting point fell in the range of 224 to 226 °C. `COc1ccc2c(c1)CCC1CCN(C)C(=O)C(CC(C)NC(C)C)=C21` (stereo not drawn) came in with a melting point of 118 to 120 °C.

Consider `CC1(C)CC(=O)SC(=NCCCCN2CCN(c3ncccn3)CC2)N1`, for which the melting point worked out at 148 °C.

Compound `CS(=O)(=O)N(Cc1cccnc1)c1ccc(F)cc1` returned a melting point of 112 to 113 °C. Under `CCOC(=O)c1nc2c(=O)[nH]c3cc(C(F)(F)F)ccc3n2c1CNc1ccc2c(c1)OCO2` stands over 250 °C; under `CCOC(=O)CC(=Nc1cc([N+](=O)[O-])ccc1Cl)OC`, 60 to 62 °C. Next, `O=C1C2=NCCCN2c2ccc(F)cc21`: 150 to 152 °C. Turning to `CCOC(=O)N1CCC2(CC1)N=C(N)c1c(F)ccc(Cl)c1N2`, the melting point was in the range of 182 to 184 °C.

As to `CC(C)C(O)c1ccc2oc3ncccc3c(=O)c2c1` (stereo not drawn), the melting point was determined as 160 °C. Under `C#Cc1ccc(C(=C2CC(C)(C)CC(C)(C)C2)c2ccc(O)cc2)cc1` stands 138 to 139 °C; under `COc1cc2c(cc1OC)C(c1ccccc1OC)=NN=C(C)C2`, 119 to 121 °C; under `C=CC(c1ccccc1)c1c(C)c(OC(C)=O)c(C)c(C)c1O` (stereo not drawn), 136 to 138 °C. Next, `Cc1c(Nc2c(C#N)cncc2-c2cc3cc(C=O)ccc3o2)ccc2[nH]ccc12`: 235 to 237 °C; `O=C1CC(NC(=O)c2cccnc2)CCCN1` (stereo not drawn): 220 to 221 °C; `O=C(CCl)Nc1ccc2c(c1NC(=O)c1ccno1)C(=O)c1ccccc1C2=O`: 212 to 213 °C. Consider `COC(=O)CSC(c1ccccc1)(c1ccccc1)c1ccccc1`, for which the melting point was in the range of 111 to 115 °C. Next, `O=C(/C=C/c1ccc2ccccc2c1)N1CCOC1=O`: 121 to 123 °C; `CNC(=O)N(O)CC#Cc1cccc(C2=N[C@H](c3ccccc3)CO2)c1`: 163 to 165 °C.

With `COc1cc(C=CC(=O)OC2CC3CC(OC(=O)C=Cc4cc(OC)c(OC)c(OC)c4)C(C2)N3C)cc(OC)c1OC` (stereo not drawn), the melting point lay within 53 to 57 °C. Under `CN1CCN(c2cccc3c2C[C@H](NC(=O)c2csc(-c4ccncc4)n2)CC3)CC1` stands 187 to 188 °C. Next, `CC(C)(C)OC(=O)N1COC(=O)[C@@H]1Cc1ccccc1`: 84 to 86 °C; `CCC12CCC3=C(CC(C)c4cc(OC)ccc43)C1CCC21OCCO1` (stereo not drawn): 122 to 124 °C; `CCC(O)(CC)CCN1CCC(c2noc3cc(F)ccc23)CC1`: 50 to 53 °C.

Compound `COc1ccc2c(c1)OC(C)(C)C(NC(=O)c1cc(F)ccc1OC)C2=O` (stereo not drawn) came in with a melting point of 143 to 144 °C.

`CC(C)(C)c1ccc(OCCCN2CCC(C(O)(c3ccc(F)cc3)c3ccc(F)cc3)CC2)cc1`: the melting point was in the range of 126 to 127 °C.

Compound `Nc1nc(OC2CCCC2)c2ncn([C@@H]3C[C@H](CO)[C@@H](O)C3)c2n1` showed a melting point of 181 to 182 °C. Under `COc1ccc(N2CC(CN3CCC(O)(c4ccccc4)CC3)OC2=O)cc1` (stereo not drawn) stands 141 to 143 °C. Next, `Cc1cc(OCc2cnc(-c3ccc(C(F)(F)F)cc3)nc2C2CC2)ccc1OC(C)(C)C(=O)O`: 191 to 192 °C; `Cc1nn2ccccc2c1SC#N`: 111 to 113 °C; `Cn1c(=O)[nH]c2nc3ccc(OCCCC(=O)N4CCCCC4)cc3cc21`: 215 to 217 °C. `CC(Nc1cc(Cl)nc(SCC(=O)O)n1)c1ccc(Cl)cc1` (stereo not drawn) showed a melting point of 155 to 160 °C. Under `COc1ccccc1Nc1cccc2c1C(=O)N(C1CCC(=O)NC1=O)C2=O` (stereo not drawn) stands 223 to 225 °C; under `O=Cc1cccn1-c1ccc(C(F)(F)F)cc1Cl`, 119 to 120 °C. Under `CC(C)n1nc(-c2cc(C(N)=O)c(N)nc2-c2ccccc2)ccc1=O` stands over 250 °C; under `CC(Oc1ccc(-c2cccc(NC(N)=O)c2)cc1)C(O)CCc1cccnc1` (stereo not drawn), 75 to 76 °C; under `CCC(=O)N(CC)c1cccc(-c2ccnc3c(C#N)cnn23)c1`, 161 to 162 °C.

`CC(C)(C)OC(=O)N[C@@H](Cc1ccc(-c2ccccc2)cc1)C(=O)OCc1ccccc1` yielded a melting point of 98.3 to 100 °C. With `COc1cc(CS(=O)c2ccc(O)cc2)cc(OC)c1OC` (stereo not drawn), the melting point was found to be 153 °C. With `O=C(O)c1ccccc1C=Cc1cccc(Br)c1`, the melting point was in the range of 145 to 150 °C. In turn, `CC(C)(C)COc1ccc([N+](=O)[O-])cc1C#N` returned a melting point of 90 to 91 °C. Next, `Cc1oc(-c2ccccc2)nc1CCOc1ccc(COc2ccccc2CC(=O)O)cn1`: 159 to 160 °C; `CC(C)c1cccc(C(C)C)c1NC(=O)C(N)Cc1c[nH]c2ccccc12` (stereo not drawn): 185 to 187 °C; `CCC(=O)N1CCC(NC(=O)Nc2cccc(Cl)c2)CC1`: 165 to 166 °C. `Cc1cc(Oc2ccc(C(F)(F)F)cc2Cl)cc(C)c1NC(=O)C1C(=O)N(C)C(=S)N(C)C1=O`: the melting point was in the range of 171 to 173 °C.

In turn, `N=C(N)NN=Cc1cccc(Cl)c1I` returned a melting point of 231 to 232 °C.

As for `Cc1onc(-c2cccc(Cl)c2)c1CO`, the melting point was in the range of 66 to 68 °C. Under `NC(=O)C1CCCN(C(c2ccccc2)c2ccccc2)C1` (stereo not drawn) stands 86 to 87 °C; under `CN1C[C@H](CN2CCN(C(c3ccccc3)c3ccccc3)CC2)C=C2c3cccc4[nH]c(Cl)c(c34)C[C@H]21`, 208 °C; under `COc1cc(C(C)C)c2c(c1)S(=O)(=O)N(COP(=O)(OCc1ccccc1)OCc1ccccc1)C2=O`, 75.5 to 76.5 °C. With `Cc1nc(NC(=O)Cc2ccccc2)sc1C(=O)NCc1ccccc1`, the melting point fell in the range of 63 to 65 °C. As for `O=C(CC(=O)c1ccccc1C(=O)O)c1ccc(Cl)cc1`, the melting point was in the range of 148 to 150 °C.

`Nc1c(SC(F)(F)F)c(C=O)nn1-c1c(Cl)cc(C(F)(F)F)cc1Cl` registered a melting point of 140 to 143 °C.

In turn, `COc1ccc(C2CSc3ccccc3N(CC(=O)O)C2=O)cc1` (stereo not drawn) had a melting point of 180 °C. Next, `Cc1ccc(S(=O)(=O)OCC2Cc3cccc(C=CC(C)(C)C)c3O2)cc1` (stereo not drawn): 85 to 88 °C; `COc1ccc2c3c(c(Cl)nc2c1)C(=O)c1ccccc1-3`: 261 to 266 °C. Under `NCC1CCN(C(c2ccccc2)c2ccccc2)CC1` stands 80 °C; under `CC(C)OC(=O)N1CCN(c2ccn3ncc(Br)c3n2)CC1`, 78 to 79 °C. Under `CCOC(Cc1cnc2ccc(OCc3ccc([N+](=O)[O-])cc3)cc2c1)C(=O)O` (stereo not drawn) stands 169 to 174 °C; under `Cc1cc(CNC2CC2)cc(C)c1Oc1ccc([N+](=O)[O-])c(Nc2ccc(C#N)cc2)n1`, 175 to 177 °C. `COc1cccc(C(=O)N2c3ccccc3C(O)CC2C)c1` (stereo not drawn) returned a melting point of 148 to 149 °C. Under `COc1ccc(-n2c(-c3cccnc3)nc(SC)c(C#N)c2=O)cc1` stands 230 to 233 °C; under `CCC(=O)c1cnc2c(OCCO)cccc2c1Nc1ccccc1C`, 174 to 176 °C.

The values are drawn from a melting point compilation (Tetko et al.; mined from patent text by program, amines drawn as free bases though some values may be those of a salt).
